In ChEMBL document CHEMBL5727581, “Triazole DAGLα inhibitors” (2020) one finds IC50 data, which are given here for two compounds.

Broadly, the IC50 is the concentration at which inhibition is half-maximal.

The target of test [1] is T1, Diacylglycerol lipase-beta (Homo sapiens, UniProt Q8NCG7).
T1 sequence (Q8NCG7 whole entry): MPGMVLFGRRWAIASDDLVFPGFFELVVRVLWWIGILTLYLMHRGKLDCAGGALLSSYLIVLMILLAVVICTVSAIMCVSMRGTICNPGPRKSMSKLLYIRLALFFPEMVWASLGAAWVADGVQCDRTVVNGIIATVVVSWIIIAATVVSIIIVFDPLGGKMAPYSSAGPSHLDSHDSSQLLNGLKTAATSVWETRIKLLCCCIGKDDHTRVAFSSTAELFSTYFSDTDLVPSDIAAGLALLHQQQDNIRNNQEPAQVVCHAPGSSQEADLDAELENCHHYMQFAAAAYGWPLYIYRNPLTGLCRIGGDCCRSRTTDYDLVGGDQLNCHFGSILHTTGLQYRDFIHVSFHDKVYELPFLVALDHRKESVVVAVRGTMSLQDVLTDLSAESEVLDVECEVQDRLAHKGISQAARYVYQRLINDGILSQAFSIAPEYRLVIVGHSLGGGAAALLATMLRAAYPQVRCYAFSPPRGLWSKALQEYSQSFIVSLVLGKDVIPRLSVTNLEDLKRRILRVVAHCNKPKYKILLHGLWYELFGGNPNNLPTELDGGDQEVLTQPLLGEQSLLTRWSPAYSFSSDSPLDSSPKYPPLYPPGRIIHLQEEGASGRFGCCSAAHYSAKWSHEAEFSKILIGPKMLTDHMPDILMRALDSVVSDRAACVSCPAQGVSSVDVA
Put plainly: (§1) In Vitro Inhibition of DAGL: Briefly, membrane proteome (1 mg/ml, 20 μL) was prepared from HEK293T cells (transiently transfected with hDAGLα-FLAG or hDAGLα-S472A-FLAG, hDAGLβ-FLAG or hDAGLβ-S443A-FLAG) as described in Example 16. The proteome was incubated at room temperature with vehicle (DMSO) or compound in 0.5 μL DMSO for 30 min. The membrane proteome sample was subsequently treated for 30 min with HT-01 probe (1 μM) or FP-Rh probe (1 μM). The reactions were quenched with 10 μL 3× Laemmli sample buffer (final concentrations: 60 mM Tris-Cl pH 6.8, 2% (w/v) SDS, 10% (v/v) glycerol, 5% (v/v) (3-mercaptoethanol, 0.01% (v/v) bromophenol blue). The samples were directly loaded and resolved on SDS page gel (10% acrylamide). The gels were scanned using a ChemiDoc MP system (Cy3 settings, 605/50 filter).The resolved proteins were transferred from the gels to a polyvinyldifluoride membrane for Western Blotting using a Trans-Blot® Turbo (BioRad). FLAG-tagged enzymes were stained using rabbit anti-FLAG as primary antibody, and goat-anti-rabbit HRP as secondary antibody. The blot was developed in the dark using a 10 mL luminal solution, 100 μL ECL enhancer and 3 μL H2O2. Chemiluminescence was visualized using a ChemiDoc XRS (BioRad).The percentage of DAGL activity remaining in the assayed samples was determined by measuring the integrated optical intensity of the fluorescent protein bands of the Western Blot using image lab 4.1. The relative intensity was compared to the vehicle (DMSO) treated proteins, which were set to 100%. IC50 values were determined by plotting a log(inhibitor) vs. normalized response (Variable slope) dose-response curve generated using Prism software (GraphPad). In general terms: A western blot detects proteins with antibodies after separation by electrophoresis.

For test [2], the target named is T2, Diacylglycerol lipase-alpha (Homo sapiens, UniProt Q9Y4D2).
T2 sequence (Q9Y4D2 whole entry): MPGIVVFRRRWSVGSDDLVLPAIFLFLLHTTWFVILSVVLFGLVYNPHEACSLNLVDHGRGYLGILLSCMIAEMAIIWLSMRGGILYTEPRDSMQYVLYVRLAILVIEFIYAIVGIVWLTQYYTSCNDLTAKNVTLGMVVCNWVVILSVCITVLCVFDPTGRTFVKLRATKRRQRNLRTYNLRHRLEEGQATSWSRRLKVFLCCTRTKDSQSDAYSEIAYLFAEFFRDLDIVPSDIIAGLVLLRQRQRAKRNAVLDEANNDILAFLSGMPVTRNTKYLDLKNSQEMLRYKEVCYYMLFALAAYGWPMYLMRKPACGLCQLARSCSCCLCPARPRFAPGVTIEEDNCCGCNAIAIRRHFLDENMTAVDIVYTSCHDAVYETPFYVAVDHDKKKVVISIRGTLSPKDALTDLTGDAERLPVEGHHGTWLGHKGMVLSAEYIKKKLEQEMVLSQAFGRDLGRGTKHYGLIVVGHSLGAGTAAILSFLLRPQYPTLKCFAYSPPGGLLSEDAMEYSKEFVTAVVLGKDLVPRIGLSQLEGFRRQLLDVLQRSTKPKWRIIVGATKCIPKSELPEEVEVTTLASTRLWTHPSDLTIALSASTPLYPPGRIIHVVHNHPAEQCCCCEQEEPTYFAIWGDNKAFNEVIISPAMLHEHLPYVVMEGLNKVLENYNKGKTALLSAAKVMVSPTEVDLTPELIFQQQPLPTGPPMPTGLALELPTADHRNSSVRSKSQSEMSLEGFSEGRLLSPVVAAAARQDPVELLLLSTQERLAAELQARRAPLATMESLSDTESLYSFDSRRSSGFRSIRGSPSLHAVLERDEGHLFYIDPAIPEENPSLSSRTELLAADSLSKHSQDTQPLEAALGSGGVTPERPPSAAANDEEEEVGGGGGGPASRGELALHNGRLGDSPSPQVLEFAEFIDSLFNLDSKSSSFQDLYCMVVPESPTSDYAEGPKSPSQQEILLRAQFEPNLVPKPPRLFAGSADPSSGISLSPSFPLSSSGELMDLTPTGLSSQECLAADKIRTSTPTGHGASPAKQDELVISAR
Described as §1.

Take `CCC(CC)CN(CCc1ccccc1)C(=O)n1ncc(-c2ccc(OC(F)(F)F)cc2)n1`: in test [1], the half-inhibitory concentration (IC50) was below 400 nM.

For `CCC(CC)CN(CCc1ccccc1)C(=O)n1cc(-c2ccc(OC(F)(F)F)cc2)nn1`, the IC50 in test [2] and in test [1] was below 400 nM each time.
